Holding throughout (details): binder
Experiment [1] has as its target MSSK1 (Homo sapiens, UniProt Q9UPE1).
In experiment [2] the target is T1, Haspin (Homo sapiens, UniProt Q8TF76).
T1 sequence (Q8TF76 1-798): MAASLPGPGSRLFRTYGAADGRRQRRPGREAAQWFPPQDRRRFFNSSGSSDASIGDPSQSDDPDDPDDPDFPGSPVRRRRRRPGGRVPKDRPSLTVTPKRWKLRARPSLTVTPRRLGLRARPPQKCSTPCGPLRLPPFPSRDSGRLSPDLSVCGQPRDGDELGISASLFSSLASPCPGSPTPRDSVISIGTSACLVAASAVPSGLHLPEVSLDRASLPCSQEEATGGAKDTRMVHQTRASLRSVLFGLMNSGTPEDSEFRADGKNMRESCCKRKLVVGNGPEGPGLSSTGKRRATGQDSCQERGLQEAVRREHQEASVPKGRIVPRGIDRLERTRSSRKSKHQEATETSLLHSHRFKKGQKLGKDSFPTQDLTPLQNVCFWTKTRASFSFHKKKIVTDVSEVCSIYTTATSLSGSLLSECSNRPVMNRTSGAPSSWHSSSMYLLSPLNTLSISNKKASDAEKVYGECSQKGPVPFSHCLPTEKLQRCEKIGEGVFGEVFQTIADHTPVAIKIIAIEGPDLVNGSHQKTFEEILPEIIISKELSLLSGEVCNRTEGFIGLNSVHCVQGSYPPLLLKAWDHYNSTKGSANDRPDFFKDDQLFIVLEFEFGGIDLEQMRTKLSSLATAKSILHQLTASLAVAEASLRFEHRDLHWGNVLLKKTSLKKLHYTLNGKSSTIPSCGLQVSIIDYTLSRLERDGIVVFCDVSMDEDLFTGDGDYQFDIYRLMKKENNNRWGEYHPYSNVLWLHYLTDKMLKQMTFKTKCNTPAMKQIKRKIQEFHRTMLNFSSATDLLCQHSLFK

For experiment [3], the target named is OSR1 (Homo sapiens, UniProt O95747).
OSR1, sequence (O95747 whole entry): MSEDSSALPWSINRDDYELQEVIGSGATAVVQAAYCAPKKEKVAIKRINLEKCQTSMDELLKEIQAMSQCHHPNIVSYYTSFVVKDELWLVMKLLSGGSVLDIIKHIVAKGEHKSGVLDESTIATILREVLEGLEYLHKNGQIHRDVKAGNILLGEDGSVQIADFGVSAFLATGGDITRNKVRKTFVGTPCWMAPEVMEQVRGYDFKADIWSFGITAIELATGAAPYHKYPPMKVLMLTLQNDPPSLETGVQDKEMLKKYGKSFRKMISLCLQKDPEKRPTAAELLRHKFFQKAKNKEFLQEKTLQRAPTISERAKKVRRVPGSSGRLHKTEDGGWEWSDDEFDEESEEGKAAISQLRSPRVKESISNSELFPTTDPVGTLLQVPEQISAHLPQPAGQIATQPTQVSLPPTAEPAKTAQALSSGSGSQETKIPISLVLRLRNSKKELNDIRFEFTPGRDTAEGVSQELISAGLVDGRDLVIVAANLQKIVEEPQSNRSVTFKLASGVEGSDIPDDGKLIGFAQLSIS
The target in experiment [4] is T2, VRK1 (Homo sapiens, UniProt Q99986).
T2 sequence (Q99986 1-396): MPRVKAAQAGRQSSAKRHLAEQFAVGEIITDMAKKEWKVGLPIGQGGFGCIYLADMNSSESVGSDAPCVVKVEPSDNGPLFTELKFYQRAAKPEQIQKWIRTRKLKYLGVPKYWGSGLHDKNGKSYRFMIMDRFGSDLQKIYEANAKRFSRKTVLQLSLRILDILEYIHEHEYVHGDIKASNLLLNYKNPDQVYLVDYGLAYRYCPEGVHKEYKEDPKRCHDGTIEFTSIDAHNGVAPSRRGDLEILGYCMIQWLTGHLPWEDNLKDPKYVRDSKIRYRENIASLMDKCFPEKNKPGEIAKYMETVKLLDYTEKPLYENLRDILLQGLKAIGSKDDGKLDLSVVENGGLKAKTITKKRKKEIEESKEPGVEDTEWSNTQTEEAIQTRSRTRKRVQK

Experiment [5] addresses T3, MAP2K6 (Homo sapiens, UniProt P52564).
T3 sequence (P52564 1-334): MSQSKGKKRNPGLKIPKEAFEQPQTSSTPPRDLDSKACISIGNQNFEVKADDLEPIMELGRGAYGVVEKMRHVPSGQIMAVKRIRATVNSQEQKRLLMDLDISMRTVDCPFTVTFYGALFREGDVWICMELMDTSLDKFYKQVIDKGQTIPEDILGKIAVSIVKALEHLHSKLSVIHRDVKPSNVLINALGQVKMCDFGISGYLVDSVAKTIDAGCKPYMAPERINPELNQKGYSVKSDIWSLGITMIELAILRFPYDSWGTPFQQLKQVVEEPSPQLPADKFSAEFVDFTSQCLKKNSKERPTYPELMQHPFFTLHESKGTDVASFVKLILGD

The target of experiment [6] is TAF1 (Homo sapiens, UniProt P21675).
TAF1, sequence (P21675 whole entry): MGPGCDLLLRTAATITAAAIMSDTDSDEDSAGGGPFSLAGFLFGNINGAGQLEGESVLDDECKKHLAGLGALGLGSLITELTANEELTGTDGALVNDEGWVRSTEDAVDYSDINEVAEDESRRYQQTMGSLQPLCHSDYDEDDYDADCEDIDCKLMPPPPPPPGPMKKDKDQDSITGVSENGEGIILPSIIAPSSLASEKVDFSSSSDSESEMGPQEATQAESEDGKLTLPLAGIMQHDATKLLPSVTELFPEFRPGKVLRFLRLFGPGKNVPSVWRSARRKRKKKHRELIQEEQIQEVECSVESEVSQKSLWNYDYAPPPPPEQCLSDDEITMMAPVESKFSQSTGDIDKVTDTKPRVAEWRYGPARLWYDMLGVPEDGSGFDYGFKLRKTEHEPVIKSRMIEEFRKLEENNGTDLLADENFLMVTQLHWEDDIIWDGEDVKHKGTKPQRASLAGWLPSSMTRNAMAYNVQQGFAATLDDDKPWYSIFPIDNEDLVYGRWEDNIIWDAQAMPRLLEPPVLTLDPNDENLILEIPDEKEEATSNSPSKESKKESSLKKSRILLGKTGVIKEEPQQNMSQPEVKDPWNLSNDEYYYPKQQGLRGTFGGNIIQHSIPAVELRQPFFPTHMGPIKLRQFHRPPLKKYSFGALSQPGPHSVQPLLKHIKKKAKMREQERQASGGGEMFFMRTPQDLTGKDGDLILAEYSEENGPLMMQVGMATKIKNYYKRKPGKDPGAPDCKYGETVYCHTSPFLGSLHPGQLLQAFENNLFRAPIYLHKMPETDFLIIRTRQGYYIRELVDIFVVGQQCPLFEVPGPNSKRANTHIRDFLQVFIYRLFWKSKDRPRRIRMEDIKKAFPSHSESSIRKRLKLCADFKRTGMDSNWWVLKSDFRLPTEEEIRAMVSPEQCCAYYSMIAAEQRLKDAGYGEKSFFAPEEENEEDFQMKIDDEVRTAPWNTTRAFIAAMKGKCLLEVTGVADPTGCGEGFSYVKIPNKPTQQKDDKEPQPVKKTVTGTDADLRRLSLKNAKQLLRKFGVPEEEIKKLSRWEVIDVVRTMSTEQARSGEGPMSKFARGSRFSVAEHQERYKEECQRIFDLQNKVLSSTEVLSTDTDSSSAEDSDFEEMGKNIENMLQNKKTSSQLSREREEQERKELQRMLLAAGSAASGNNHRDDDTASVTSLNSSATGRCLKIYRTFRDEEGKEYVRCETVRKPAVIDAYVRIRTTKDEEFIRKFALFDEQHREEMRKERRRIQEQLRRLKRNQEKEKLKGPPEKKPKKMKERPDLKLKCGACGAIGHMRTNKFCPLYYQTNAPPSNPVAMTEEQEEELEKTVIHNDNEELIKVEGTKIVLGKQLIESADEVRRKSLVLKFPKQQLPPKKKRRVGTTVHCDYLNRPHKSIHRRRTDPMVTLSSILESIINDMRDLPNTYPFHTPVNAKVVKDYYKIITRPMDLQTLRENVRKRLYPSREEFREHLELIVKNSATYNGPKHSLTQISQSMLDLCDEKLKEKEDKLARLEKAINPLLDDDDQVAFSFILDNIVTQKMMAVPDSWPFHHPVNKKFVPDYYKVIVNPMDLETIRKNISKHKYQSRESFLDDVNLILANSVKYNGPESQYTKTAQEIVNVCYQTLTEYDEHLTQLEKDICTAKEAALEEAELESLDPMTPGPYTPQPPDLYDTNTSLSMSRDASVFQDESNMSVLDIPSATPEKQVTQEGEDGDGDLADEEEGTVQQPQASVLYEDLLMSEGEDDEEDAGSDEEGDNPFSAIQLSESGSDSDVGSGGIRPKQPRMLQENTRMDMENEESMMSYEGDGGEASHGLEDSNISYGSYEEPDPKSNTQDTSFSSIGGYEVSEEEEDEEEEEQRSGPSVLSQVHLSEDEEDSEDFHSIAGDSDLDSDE
The target of experiment [7] is T4, ULK3 (Homo sapiens, UniProt Q6PHR2).
T4 sequence (Q6PHR2 1-472): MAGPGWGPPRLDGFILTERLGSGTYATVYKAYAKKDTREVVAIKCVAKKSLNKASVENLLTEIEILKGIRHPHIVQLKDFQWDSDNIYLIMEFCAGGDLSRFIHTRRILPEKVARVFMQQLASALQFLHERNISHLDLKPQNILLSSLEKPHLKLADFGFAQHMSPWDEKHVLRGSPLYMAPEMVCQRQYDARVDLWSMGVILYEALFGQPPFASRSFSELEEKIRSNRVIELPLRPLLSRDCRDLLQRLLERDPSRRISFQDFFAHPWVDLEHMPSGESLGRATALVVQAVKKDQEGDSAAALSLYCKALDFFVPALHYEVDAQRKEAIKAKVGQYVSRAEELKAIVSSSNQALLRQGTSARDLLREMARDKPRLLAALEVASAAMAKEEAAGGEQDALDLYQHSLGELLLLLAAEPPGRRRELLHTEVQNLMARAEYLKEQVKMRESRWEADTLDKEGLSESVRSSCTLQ

Experiment [8] deals with HIPK2 (Homo sapiens, UniProt Q9H2X6).
HIPK2, sequence (Q9H2X6 whole entry): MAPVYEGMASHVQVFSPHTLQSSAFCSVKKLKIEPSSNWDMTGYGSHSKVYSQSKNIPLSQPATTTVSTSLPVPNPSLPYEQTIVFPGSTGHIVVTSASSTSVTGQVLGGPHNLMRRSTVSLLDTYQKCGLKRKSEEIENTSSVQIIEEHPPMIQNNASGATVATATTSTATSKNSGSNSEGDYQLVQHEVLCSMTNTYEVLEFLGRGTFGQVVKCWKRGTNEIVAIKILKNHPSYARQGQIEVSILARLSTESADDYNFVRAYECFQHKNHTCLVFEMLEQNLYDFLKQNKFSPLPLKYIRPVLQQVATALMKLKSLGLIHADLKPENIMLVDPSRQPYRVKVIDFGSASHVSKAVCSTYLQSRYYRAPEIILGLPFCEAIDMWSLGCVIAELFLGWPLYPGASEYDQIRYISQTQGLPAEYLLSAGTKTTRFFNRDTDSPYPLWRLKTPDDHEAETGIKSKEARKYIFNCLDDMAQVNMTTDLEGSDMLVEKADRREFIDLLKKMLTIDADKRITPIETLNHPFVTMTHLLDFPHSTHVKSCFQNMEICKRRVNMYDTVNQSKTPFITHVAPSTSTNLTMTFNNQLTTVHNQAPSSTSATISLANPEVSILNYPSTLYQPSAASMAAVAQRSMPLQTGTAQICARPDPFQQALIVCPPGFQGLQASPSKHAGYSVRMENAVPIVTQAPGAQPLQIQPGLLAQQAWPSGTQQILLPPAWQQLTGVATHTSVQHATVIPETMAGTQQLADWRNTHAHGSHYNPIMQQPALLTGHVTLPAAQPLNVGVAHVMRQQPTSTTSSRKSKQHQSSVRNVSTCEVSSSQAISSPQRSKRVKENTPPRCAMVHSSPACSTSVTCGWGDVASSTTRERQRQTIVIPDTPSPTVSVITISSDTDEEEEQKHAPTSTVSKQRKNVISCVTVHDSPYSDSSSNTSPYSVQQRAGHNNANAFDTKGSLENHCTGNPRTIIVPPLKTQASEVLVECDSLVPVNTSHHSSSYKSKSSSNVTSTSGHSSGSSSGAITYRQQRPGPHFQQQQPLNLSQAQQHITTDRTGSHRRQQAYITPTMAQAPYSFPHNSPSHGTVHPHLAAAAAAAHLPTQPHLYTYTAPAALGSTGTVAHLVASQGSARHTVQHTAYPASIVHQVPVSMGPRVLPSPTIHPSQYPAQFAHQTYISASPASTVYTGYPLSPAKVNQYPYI

MSSK1, sequence (Q9UPE1 whole entry): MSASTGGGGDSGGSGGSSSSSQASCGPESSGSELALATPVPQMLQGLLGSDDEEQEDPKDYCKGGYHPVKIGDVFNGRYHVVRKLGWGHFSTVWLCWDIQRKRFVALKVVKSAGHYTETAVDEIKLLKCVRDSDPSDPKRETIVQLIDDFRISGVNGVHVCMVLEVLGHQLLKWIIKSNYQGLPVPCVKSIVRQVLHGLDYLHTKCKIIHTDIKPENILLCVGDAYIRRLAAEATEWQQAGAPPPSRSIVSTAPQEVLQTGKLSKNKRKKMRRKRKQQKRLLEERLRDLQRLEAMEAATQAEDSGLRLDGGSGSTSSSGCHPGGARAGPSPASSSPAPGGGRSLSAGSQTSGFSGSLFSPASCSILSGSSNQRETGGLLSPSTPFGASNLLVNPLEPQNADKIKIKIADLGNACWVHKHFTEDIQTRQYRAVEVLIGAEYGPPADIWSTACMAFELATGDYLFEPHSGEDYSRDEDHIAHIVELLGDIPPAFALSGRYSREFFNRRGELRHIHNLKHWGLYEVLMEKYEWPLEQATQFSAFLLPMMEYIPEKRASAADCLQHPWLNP

As for `COc1cc(N2CCN(C)CC2)ccc1Nc1ncc2cc(-c3ccc(-c4cccc(C)n4)cc3Cl)c(=O)n(CCCCN)c2n1` [compound 36, 8-(4-Aminobutyl)-6-(2-chloro-4-(6-methylpyridin-2-yl)phenyl)-2-((2-methoxy-4-(4-methylpiperazin-1-yl)phenyl)amino)pyrido[2,3-d]pyrimidin-7(8H)-one], the “dTm 36” value in experiment [1] was 0.0 °C; in experiment [2] it was -0.7 °C; in experiment [3], 3.4 °C; in experiment [4], 0.1 °C; in experiment [5], 4.4 °C; in experiment [6], -0.4 °C. The “dTm 36” value in experiment [7] amounted to 8.9 °C; in experiment [8], 0.3 °C.
Take `COc1ccc(O)c(Nc2ncc3cc(-c4ccc(-c5cccc(C)n5)cc4Cl)c(=O)n(CCCCN)c3n2)c1` [compound 34, 8-(4-Aminobutyl)-6-(2-chloro-4-(6-methylpyridin-2-yl)phenyl)-2-((2-hydroxy-5-methoxy-phenyl)amino)pyrido[2,3-d]pyrimidin-7(8H)-one]: the “dTm 34” value in experiment [1] is 0.4 °C; in experiment [2] it was -0.2 °C; in experiment [3], 0.4 °C; in experiment [4], 0.0 °C; in experiment [5], 5.4 °C; in experiment [6], 0.1 °C. In addition, the “dTm 34” value in experiment [7] was 8.3 °C; in experiment [8], 0.5 °C.
With `COc1cc(N2CCOCC2)ccc1Nc1ncc2cc(-c3ccc(-c4cccc(C)n4)cc3Cl)c(=O)n(CCCCN)c2n1` [compound 35, 8-(4-Aminobutyl)-6-(2-chloro-4-(6-methylpyridin-2-yl)phenyl)-2-((2-methoxy-4-morpholino-phenyl)amino)pyrido[2,3-d]pyrimidin-7(8H)-one], the “dTm 35” value is -0.2 °C in experiment [1]; -0.1 °C in experiment [2]; 2.6 °C in experiment [3]; -0.2 °C in experiment [4]; 6.8 °C in experiment [5]; -0.7 °C in experiment [6]. Besides, the “dTm 35” value was determined as 12.7 °C in experiment [7] and 0.1 °C in experiment [8].
Take `Cc1cccc(-c2ccc(-c3cc4cnc(Nc5ccc(F)c(CO)c5)nc4n(CCCCN)c3=O)c(Cl)c2)n1` [compound 33, 8-(4-Aminobutyl)-6-(2-chloro-4-(6-methylpyridin-2-yl)phenyl)-2-((4-fluoro-3-(hydroxymethyl)phenyl)amino)pyrido[2,3-d]pyrimidin-7(8H)-one]: the “dTm 33” value in experiment [1] is -0.4 °C; in experiment [2], -0.2 °C; in experiment [3], 2.4 °C; in experiment [4] it was 0.4 °C; in experiment [5] it was 10.2 °C; in experiment [6], -0.2 °C. Moreover, the results for the “dTm 33” value in experiment [7] and in experiment [8] were 13.9 °C and 2.0 °C, respectively.
